Literature values in US9456982B2, “Solid formulations of niacin to counteract cold extremities” (BE-WARM LLC, priority 2014, dated 2016).

Conditions: therapeutic niacin doses; sometimes longer

duration of SVFS flush: 15 to 30 min
Compound: O=C(O)c1cccnc1 [niacin, pyridine-3-carboxylic acid]
